The record followed here is ChEMBL document CHEMBL4219053, “Antiobesity and emetic effects of a short-length peptide YY analog and its PEGylated and alkylated derivatives” (Bioorg Med Chem, 2018).

The test system of data set [1] is Canis familiaris. The experiment in a line: Emetic effect in Beagle dog at 0.01 mg/kg, sc measured after 1 to 24 hrs. Type of data set: organism-based, Canis lupus familiaris. The settings on record: in vivo.
Data set [2] can be described thus: Drug uptake in DIO C57BL/6J mouse serum at 0.01 mg/kg/day, sc for 2 weeks. It is filed as ADME, organism-based. The following applies: read-out: Drug uptake.
The subject of data set [3] is Canis familiaris. The experiment in a line: Emetic effect in Beagle dog at 0.01 mg/kg, sc measured after 1 hr. Type of data set: ADME, organism-based, Canis lupus familiaris. The settings on record: in vivo.
Data set [4] in a line: Cmax in Beagle dog at 0.01 mg/kg, sc. Set-up: dose 0.01 mg/kg, route subcutaneous. The following applies: in vivo. It is filed as ADME, organism-based, Canis lupus familiaris.
Data set [5] can be described thus: Cmax in dog at 0.01 mg/kg, sc administered as bolus. The settings on record: in vivo. Details: dose 0.01 mg/kg, route subcutaneous. It is filed as ADME, organism-based, Canis lupus familiaris.
The test system of data set [6] is Mus musculus. Description: Emetic effect in DIO C57BL/6J mouse at 0.01 mg/kg, sc for 2 weeks. It is filed as ADME, organism-based. The following applies: in vivo, 336 h.
Data set [7] concerns Canis familiaris. The experiment in a line: Emetic effect in dog at 0.003 mg/kg/day, sc as infusion for 8 hrs. Type of data set: ADME, organism-based, Canis lupus familiaris. The following applies: in vivo.
The nature of data set [8]: Tmax in Beagle dog at 0.01 mg/kg, sc. Type of data set: ADME, organism-based, Canis lupus familiaris. The settings on record: in vivo.
Data set [9] in a line: Cmax in dog at 0.01 mg/kg/day, sc administered as infusion after 8 hrs. It is filed as ADME, organism-based, Canis lupus familiaris. Set-up: dose 0.01 mg/kg/day, route subcutaneous. The settings on record: in vivo.
A short description of data set [10]: Cmax in dog at 0.003 mg/kg/day, sc administered as infusion after 8 hrs. Set-up: dose 0.003 mg/kg/day, route subcutaneous. It is filed as ADME, organism-based, Canis lupus familiaris. The settings on record: in vivo.

One may read the Cmax as the peak of the concentration-time curve. As a reminder, the Tmax is the time at which the peak concentration occurs. For the compound `CC[C@](C)(NC(=O)[C@H]1C[C@H](O)CN1C(=O)[C@H](CO)NC(=O)c1c[nH]cn1)C(=O)N[C@@H](Cc1ccncc1)C(=O)N[C@@H](CC1CCCCC1)C(=O)N[C@@H](CC(C)(C)C)C(=O)N[C@@H](CC(N)=O)C(=O)N[C@@H](CCCCN)C(=O)NC(C)(C)C(=O)N[C@H](C(=O)N[C@@H](CCCNC(=N)N)C(=O)N[C@@H](CCC(N)=O)C(=O)N[C@@H](CCCNC(=N)N)C(=O)N[C@@H](CC1CCCCC1)C(N)=O)[C@@H](C)O`, the Activity result in data set [1] is recorded as “Non-Toxic”; in data set [3], “Toxic”; in data set [6], “Toxic”; in data set [7], “Toxic”. For the same compound, the concentration at 336 h in data set [2] is 0.225 ng/mL. The Cmax is 2.9 ng/mL in [4], 2.9 ng/mL in data set [5], 0.74 ng/mL in [9] and 0.18 ng/mL in [10]. In addition, the time to peak (Tmax) in [8] came out at 36 min.
